One data set is described as follows: in vitro. The settings on record: human.
Data set [1] relates to human cancer cell line A549 (carcinomic human alveolar basal epithelial cells). The experiment in a line: Cytotoxicity (antiproliferative) CCK-8 assay, A549. The settings on record: for IC50: read-out: Cytotoxicity IC50 Lung A549; for toxicity toward A549 (in words): in vitro, CCK-8. On the technique in general: Tetrazolium assays rely on reduction of a dye to a coloured formazan, in cell work by metabolically active cells.
From the text: (§1) The cytotoxicity of the new α-aminophosphine oxide and phosphonate acetals 4 and 5, β-keto-α-aminophosphonate 6, aziridines 7, 10 and 14, and allylic α-aminophosphine oxides and phosphonates 8, 9, 11, 12, 15 and 16 was investigated in vitro by checking their antiproliferative activities against the human cancer cell line A549 (carcinomic human alveolar basal epithelial cells). […] In order to assess growth inhibition, cell counting kit (CCK-8) assay was employed. […] Likewise, healthy lung cells, such as MRC-5 non-malignant lung fibroblasts were tested to study the selectivity of the cytotoxicity [49].
(§2) All stock solutions of the investigated compounds were prepared by dissolving the powered materials in appropriate amounts of DMSO. The final concentration of DMSO never exceeded 5% (v/v) in reactions. The stock solution was stored at 5 °C until it was used.
(§3) Cells were cultured according to the supplier’s instructions. […] On day 2, compounds were added and samples were incubated for 48 h. […] The absorbance of each well was determined by an Automatic ELISA Reader System (Multiskan FC, Thermo Fisher Scientific, Waltham, MA, USA) at 450 nm wavelength.

Data set [2] is described as follows: Cytotoxicity CCK-8 assay, MRC-5 (selectivity). The settings on record: human, MRC-5 non-malignant lung fibroblasts.
From the text: as §1, §2, §3
In data set [3] the test system is Human colon carcinoma cell line (RKO). The experiment in a line: Cytotoxicity (antiproliferative) CCK-8 assay, RKO. The settings on record: for IC50: Homo sapiens, Colon carcinoma cell, 48 h, read-out: cytotoxicity value against human colon carcinoma cell line (RKO); for toxicity toward RKO (in words): in vitro, CCK-8.
Method: Human colon carcinoma cell line (RKO) was also used to test the antiproliferative activity of some of our compounds. In order to assess growth inhibition, cell counting kit (CCK-8) assay was employed.
as §2
Cells were cultured according to the supplier’s instructions. Cells were seeded in 96-well plates at a density of 2–4 × 10^3 cells per well and incubated overnight in 0.1 mL of media supplied with 10% Fetal Bovine Serum (Lonza) in 5% CO2 incubator at 37 °C. On day 2, compounds were added and samples were incubated for 48 h. After treatment, 10 μL of cell counting kit-8 was added into each well for additional 2 h incubation at 37 °C. The absorbance of each well was determined by an Automatic ELISA Reader System (Multiskan FC, Thermo Fisher Scientific, Waltham, MA, USA) at 450 nm wavelength.
Setting [4] is: CCK-8, 48 h incubation, concentration corresponding to 50% growth inhibition.

As a reminder, the melting point is the temperature, or range, at which the solid turns liquid.

Where two headings read alike, the source gives them in different places.

From the text for in vitro: as §1, §2, §3

For the compound `C[C@@]1(OCC(F)(F)F)N[C@H]1P(=O)(c1ccccc1)c1ccccc1` (relative stereo) [Compound 7, [(2S*,3S*)-3-Methyl-3-(2,2,2-trifluoroethoxy)aziridin-2-yl]diphenylphosphine oxide], the melting point lay within 98 to 100 °C. The IC50 at 48 h in “in vitro” is more than 50 µM. Moreover, in data set [1] (Homo sapiens, A549, 48 h), the IC50 amounted to 3.6 ± 0.7 µM.
Taken in the same sequence, the figures for `C[C@@]1(Oc2ccccc2)N[C@H]1P(=O)(c1ccccc1)c1ccccc1` (relative stereo) [Compound 10a, [(2S*,3S*)-3-Methyl-3-phenoxyaziridin-2-yl]diphenylphosphine oxide] were 124 to 126 °C, more than 50 µM and 13.3 ± 1.69 µM.
`COC(C)(OC)C(N)P(=O)(c1ccccc1)c1ccccc1` (stereo not shown) [Compound 4a, (1-Amino-2,2-dimethoxypropyl) diphenylphosphine oxide] showed a melting point of 125 to 127 °C. In data set [2], this compound showed an IC50 at 48 h of more than 50 µM. In data set [3], the IC50 was more than 50 µM and the “toxicity toward RKO (in words)” value is on record as “do not exhibited any toxicity”. The IC50 in data set [1] (Homo sapiens, A549, 48 h) was 4.4 ± 0.72 µM.
The compound `CCC(OC)(OC)C(N)P(=O)(c1ccccc1)c1ccccc1` (stereo not shown) [Compound 4b, (1-Amino-2,2-dimethoxybutyl)diphenylphosphine oxide] registered a melting point of 96 to 97 °C. In data set [2], this compound yielded an IC50 at 48 h of more than 50 µM. Also, the IC50 in data set [1] (Homo sapiens, A549, 48 h) turned out to be 21.3 ± 0.22 µM.
The matching figures for `COC(OC)(c1ccccc1)C(N)P(=O)(c1ccccc1)c1ccccc1` (stereo not shown) [Compound 4c, (1-Amino-2,2-dimethoxy-2-phenylethyl)diphenylphosphine oxide]: 113 to 115 °C, more than 50 µM and 16.1 ± 2.03 µM.
The matching figures for `CCOC(C)(OCC)C(N)P(=O)(c1ccccc1)c1ccccc1` (stereo not shown) [Compound 4d, (1-Amino-2,2-diethoxypropyl)diphenylphosphine oxide]: 126 to 128 °C, more than 50 µM and 9.6 ± 1.13 µM.
Take `COC(C)(OC)C(N)P(=O)(OC(C)C)OC(C)C` (stereo not shown) [Compound 4e, Diisopropyl (1-amino-2,2-dimethoxypropyl)phosphonate]: in data set [1] (setting [4]), the IC50 was determined as 4.6 ± 0.31 µM.
For `CCOP(=O)(OCC)C(N)C(C)(OC)OC` (stereo not shown) [Compound 4f, Diethyl (1-amino-2,2-dimethoxypropyl)phosphonate], in data set [1] (setting [4]), the IC50 stood at 1.3 ± 0.1 µM.
The compound `COC(C)(OC)C(NS(=O)(=O)c1ccc(C)cc1)P(=O)(c1ccccc1)c1ccccc1` (stereo not shown) [Compound 5a, N-[1-(Diphenylphosphoryl)-2,2-dimethoxypropyl]-4-methylbenzenesulfonamide] showed a melting point of 205 to 207 °C. For the same compound, in data set [2], the IC50 at 48 h was more than 50 µM. In addition, in data set [1] (Homo sapiens, A549, 48 h), the IC50 stood at 8.2 ± 0.23 µM.
Compound `COC(C)(OC)C(NS(=O)(=O)c1ccc(C)cc1)P(=O)(OC(C)C)OC(C)C` (stereo not shown) [Compound 5b, Diisopropyl [2,2-dimethoxy-1-((4-methylphenyl)sulfonamido)propyl]phosphonate] returned an IC50 at 48 h in data set [2] of more than 50 µM. The IC50 in data set [1] (Homo sapiens, A549, 48 h) is 1.7 ± 0.3 µM.
In the case of `CCOP(=O)(OCC)C(NS(=O)(=O)c1ccc(C)cc1)C(C)(OC)OC` (stereo not shown) [Compound 5c, Diethyl [2,2-dimethoxy-1-((4-methylphenyl)sulfonamido)propyl]phosphonate], the IC50 is more than 50 µM in “in vitro” and 4.5 ± 0.45 µM in data set [1] (Homo sapiens, A549, 48 h).
Taken in the same sequence, the figures for `CCOC(C)(OCC)C(NS(=O)(=O)c1ccc(C)cc1)P(=O)(OCC)OCC` (stereo not shown) [Compound 5d, Diethyl [2,2-diethoxy-1-((4-methylphenyl)sulfonamido)propyl]phosphonate] were more than 50 µM and 3.7 ± 0.49 µM.
`CC(=O)C(NS(=O)(=O)c1ccc(C)cc1)P(=O)(OC(C)C)OC(C)C` (stereo not shown) [Compound 6, Diisopropyl [1-((4-methylphenyl)sulfonamido)-2-oxopropyl]phosphonate]: the melting point was 121 to 122 °C. In data set [1] (Homo sapiens, A549, 48 h), the IC50 is more than 50 µM. Further, the “toxicity toward A549 (in words)” value in data set [1] is on record as “do not exhibited any toxicity”.
The compound `C=C(OCC(F)(F)F)C(N)P(=O)(c1ccccc1)c1ccccc1` (stereo not shown) [Compound 8, [1-Amino-2-(2,2,2-trifluoroethoxy)allyl]diphenylphosphine oxide] showed an IC50 at 48 h in data set [2] of more than 50 µM. In data set [1] (Homo sapiens, A549, 48 h), the IC50 is more than 50 µM. The “toxicity toward A549 (in words)” value in data set [1] is recorded as “do not exhibited any toxicity effect”.
`C=C(OCC(F)(F)F)C(NS(=O)(=O)c1ccc(C)cc1)P(=O)(c1ccccc1)c1ccccc1` (stereo not shown) [Compound 9, N-[1-(Diphenylphosphoryl)-2-(2,2,2-trifluoroethoxy)allyl]-4-methylbenzenesulfonamide] gave a melting point of 201 to 203 °C. Moreover, the IC50 at 48 h in data set [2] is more than 50 µM. Moreover, in data set [1] (Homo sapiens, A549, 48 h), the IC50 turned out to be 3.5 ± 0.77 µM.
Turning to `C=C(Oc1ccccc1)C(N)P(=O)(c1ccccc1)c1ccccc1` (stereo not shown) [Compound 11a, (1-Amino-2-phenoxyallyl)diphenylphosphine oxide], in data set [2], the IC50 at 48 h was more than 50 µM. Also, in data set [3], the IC50 was more than 50 µM and the “toxicity toward RKO (in words)” value is “do not exhibited any toxicity”. In data set [1] (Homo sapiens, A549, 48 h), the IC50 is 1.9 ± 0.13 µM.
`C=C(Oc1ccc2ccccc2c1)C(N)P(=O)(c1ccccc1)c1ccccc1` (stereo not shown) [Compound 11b, [1-Amino-2-(naphyhalen-2-yloxy)allyl]diphenylphosphine oxide] returned an IC50 at 48 h in data set [2] of 33.6 ± 3.73 µM. Also, the IC50 in data set [1] (Homo sapiens, A549, 48 h) amounted to 2.7 ± 0.44 µM.
For the compound `C=C(Oc1ccccc1)C(NS(=O)(=O)c1ccc(C)cc1)P(=O)(OCC)OCC` (stereo not shown) [Compound 12a, Diethyl [1-((4-methylphenyl)sulfonamido)-2-phenoxyallyl]phosphonate], the melting point is 117 to 119 °C. The compound further had an IC50 in “in vitro” of more than 50 µM. Besides, the IC50 in data set [1] (Homo sapiens, A549, 48 h) was found to be 4.8 ± 0.9 µM.
For the compound `C=C(Oc1ccc2ccccc2c1)C(NS(=O)(=O)c1ccc(C)cc1)P(=O)(OCC)OCC` (stereo not shown) [Compound 12b, Diethyl [1-((4-methylphenyl)sulfonamido)-2-(naphthalen-2-yloxy)allyl]-phosphonate], the melting point lay within 147 to 149 °C. The IC50 in “in vitro” was 17.5 ± 1.47 µM. Besides, in data set [1] (Homo sapiens, A549, 48 h), the IC50 was 2.1 ± 0.22 µM.
For `C=C(Sc1ccccc1)C(N)P(=O)(c1ccccc1)c1ccccc1` (stereo not shown) [Compound 15a, [1-Amino-2-(phenylthio)allyl]diphenylphosphine oxide], the IC50 at 48 h in data set [2] stood at 15.9 ± 2.79 µM. In addition, in data set [3], the IC50 was more than 50 µM and the “toxicity toward RKO (in words)” value was “do not exhibited any toxicity”. Moreover, in data set [1] (Homo sapiens, A549, 48 h), the IC50 worked out at 2.6 ± 0.68 µM.
For `C=C(Sc1ccc(C)cc1)C(N)P(=O)(c1ccccc1)c1ccccc1` (stereo not shown) [Compound 15b, [1-Amino-2-(p-tolylthio)allyl]diphenylphosphine oxide], the IC50 at 48 h in data set [2] came out at 14.9 ± 1.61 µM. Moreover, the IC50 in data set [1] (Homo sapiens, A549, 48 h) stood at 5.1 ± 0.77 µM.
Turning to `C=C(Sc1ccc(F)cc1)C(N)P(=O)(c1ccccc1)c1ccccc1` (stereo not shown) [Compound 15c, [1-Amino-2-((4-fluorophenyl)thio)allyl]diphenylphosphine oxide], the IC50 at 48 h in data set [2] was more than 50 µM. Further, in data set [3], the IC50 is more than 50 µM and the “toxicity toward RKO (in words)” value is reported as “do not exhibited any toxicity”. For the same compound, the IC50 in data set [1] (Homo sapiens, A549, 48 h) is 0.1 ± 0.08 µM.
In data set [2], `C=C(Sc1ccc(OC)cc1)C(N)P(=O)(c1ccccc1)c1ccccc1` (stereo not shown) [Compound 15d, [1-Amino-2-((4-methoxyphenyl)thio)allyl]diphenylphosphine oxide] came in with an IC50 at 48 h of more than 50 µM. Also, the IC50 in data set [1] (Homo sapiens, A549, 48 h) stood at 2.6 ± 0.42 µM.
As to `C=C(Sc1ccccc1)C(N)P(=O)(OCC)OCC` (stereo not shown) [Compound 15e, Diethyl [1-amino-2-(phenylthio)allyl]phosphonate], the IC50 in data set [1] (setting [4]) amounted to 7.2 ± 0.49 µM.
Consider `C=C(Sc1ccccc1)C(NS(=O)(=O)c1ccc(C)cc1)P(=O)(c1ccccc1)c1ccccc1` (stereo not shown) [Compound 16a, N-[1-(Diphenylphosphoryl)-2-(phenylthio)allyl]-4-methylbenzenesulfonamide], for which the melting point is 199 to 201 °C. The same compound came in with an IC50 at 48 h in data set [2] of more than 50 µM. Further, in data set [1] (Homo sapiens, A549, 48 h), the IC50 turned out to be 1.2 ± 0.09 µM.
The matching figures for `C=C(Sc1ccc(C)cc1)C(NS(=O)(=O)c1ccc(C)cc1)P(=O)(c1ccccc1)c1ccccc1` (stereo not shown) [Compound 16b, N-[1-(Diphenylphosphoryl)-2-(p-tolylthio)allyl]-4-methylbenzene-sulfonamide]: 180 to 182 °C, more than 50 µM and 2.1 ± 0.15 µM.
The compound `C=C(Sc1ccccc1)C(NS(=O)(=O)c1ccc(C)cc1)P(=O)(OCC)OCC` (stereo not shown) [Compound 16c, Diethyl [1-((4-methylphenyl)sulfonamido)-2-(phenylthio)allyl]phosphonate] displayed a melting point of 99 to 101 °C. Also, the IC50 in the data set “in vitro” came out at 24.1 ± 3.55 µM. In data set [3], the IC50 was more than 50 µM and the “toxicity toward RKO (in words)” value is on record as “do not exhibited any toxicity”. In addition, the IC50 in data set [1] (Homo sapiens, A549, 48 h) was 0.2 ± 0.07 µM.
Take `C=C(Sc1ccc(F)cc1)C(NS(=O)(=O)c1ccc(C)cc1)P(=O)(OCC)OCC` (stereo not shown) [Compound 16d, Diethyl [2-((4-fluorophenyl)thio)-1-((4-methylphenyl)sulfonamido)-allyl]-phosphonate]: the melting point fell in the range of 117 to 119 °C. The same compound yielded an IC50 in the data set “in vitro” of more than 50 µM. For the same compound, in data set [1] (Homo sapiens, A549, 48 h), the IC50 stood at 3 ± 0.98 µM.
Taken in the same sequence, the figures for `C=C(Sc1ccc(C)cc1)C(NS(=O)(=O)c1ccc(C)cc1)P(=O)(OCC)OCC` (stereo not shown) [Compound 16e, Diethyl [1-((4-methylphenyl)sulfonamido)-2-(p-tolylthio)allyl]phos-phonate] were 168 to 170 °C, more than 50 µM and 3.9 ± 0.63 µM.
